{"source": "paper PMC4573583", "about": "(ACS chemical biology, 2015)", "key": {"BamL": {"test_system": "BamL", "settings": "cited from earlier work"}, "aqueous solubility": {"test": "aqueous solubility", "assay_type": "physicochemical", "settings": "in words"}, "Bacillus subtilis 168": {"test_system": "Bacillus subtilis 168", "assay_type": "cell-based"}, "Escherichia coli DH5a": {"test_system": "Escherichia coli DH5a", "assay_type": "cell-based"}, "B. anthracis Sterne [1]": {"test_system": "B. anthracis Sterne", "assay_type": "cell-based, Bacillus anthracis", "settings": "24 μM, 12 h treatment, duplicate, *P<0.01 vs DMSO-treated"}, "MRSA (S. aureus NRS384)": {"test_system": "MRSA (S. aureus NRS384)", "test": "cell density after 12 h treatment, MRSA", "assay_type": "cell-based, Staphylococcus aureus", "settings": "24 μM, duplicate, #P<0.01 vs DMSO-treated MRSA"}, "B. anthracis Sterne [2]": {"test_system": "B. anthracis Sterne", "assay_type": "cell-based, Bacillus anthracis", "settings": "4 μM, 30 min, mid-exponential phase cells, 22 °C"}, "[3]": {"test_system": "other representative members of the genus Bacillus", "assay_type": "cell-based"}, "[4]": {"test_system": "Bacillus anthracis Sterne", "settings": "microbroth dilution method, ref [6], [10]; cited from earlier work"}, "[5]": {"test_system": "other members of the genus Bacillus", "settings": "cited from earlier work"}}, "note": "Entries after “also recorded” stand apart in the source; their conditions may differ."}
{"compound": "NC(=O)[C@@H](N)CCCN=C(N)N", "note": "[Arg amide]", "values": [{"measurement": "acceptance as substrate", "setting": "BamL", "result": "poorer substrate that is turned over by BamL but only under single-turnover conditions; also recorded: only so under near-single turnover conditions"}]}
{"compound": "N=C(N)NCCC[C@H](N)C(=O)O", "note": "[Arg]", "values": [{"measurement": "acceptance as substrate", "setting": "BamL", "result": "not accepted as a substrate"}]}
{"compound": "RCTCTT [Arg-Az5]", "values": [{"measurement": "aqueous solubility", "setting": "aqueous solubility", "result": "moderate solubility"}]}
{"compound": "plantazolicin [PZN]", "values": [{"measurement": "minimum inhibitory concentration (MIC)", "setting": "Bacillus subtilis 168", "result": ">48", "unit": "µM"}, {"measurement": "minimum inhibitory concentration (MIC)", "setting": "Escherichia coli DH5a", "result": ">48", "unit": "µM"}, {"measurement": "bactericidal effect (cell density, 595 nm)", "setting": "B. anthracis Sterne [1]", "result": "bactericidal"}, {"measurement": "antibiotic activity (cell density, 595 nm)", "setting": "MRSA (S. aureus NRS384)", "result": "not PZN displays antibiotic activity against MRSA"}, {"measurement": "cell lysis", "setting": "B. anthracis Sterne [2]", "result": "induces major cell lysis above the MIC; also recorded: shows cell lysis"}, {"measurement": "activity against other Bacillus (microbroth dilution)", "setting": "[3]", "result": "> 48", "unit": "µM"}, {"measurement": "susceptibility to purified PZN", "setting": "[4]", "result": "the only organism susceptible to the action of purified PZN to date has been Bacillus anthracis"}, {"measurement": "growth inhibitory activity", "setting": "[5]", "result": "weak growth inhibitory activity"}]}
